From patent US8598147B2, “Synergistic antimicrobial composition” (Dow Global Technologies LLC, priority 2009, dated 2013)

What was measured:
[1] = test system: oil field isolated anaerobic consortium, mainly SRB; test: Biocidal efficacy (MBC, complete bacteria kill) of THPS, CTAC and THPS/CTAC combination against sulfate reducing bacteria; assay type: cell-based, sulfate reducing bacteria (SRB)
Description: Inside an anaerobic chamber (BACTRON anaerobic chamber), a deaerated sterile salt solution (3.1183 g of NaCl, 1.3082 mg of NaHCO3, 47.70 mg of KCl, 72.00 mg of CaCl2, 54.49 mg of MgSO4, 172.28 mg of Na2SO4, 43.92 mg of Na2CO3 in 1 L water) was contaminated with an oil field isolated anaerobic consortium, mainly SRB, at final bacterial concentrations of 10^6 to 10^7 CFU/mL.

oilfield SRB consortium = test: Biocidal efficacy against anaerobic bacteria for a high temperature and sulfide-rich environment (dosage for 99.999% bacterial reduction); assay type: cell-based, sulfate reducing bacteria (SRB); details: 80° C., 7 days, daily challenge of SRB consortium and 10 ppm sulfide ion
Description: Inside an anaerobic chamber (BACTRON IV), biocides solutions were challenged with 10^4 to 10^5CFU/mL of an oilfield SRB consortium and 10 ppm sulfide ion (added in the form of sodium sulfide). The biocide solutions were then incubated at 80° C. under anaerobic condition for 7 days, with daily challenge of the SRB consortium (10^4 to 10^5CFU/mL) and sulfide ion (10 ppm). Then the biocidal efficacy was evaluated against the field SRB consortium at 2 hours and 7 days. The biocidal efficacy was determined by the biocide dosage required for 99.999% bacterial reduction. Synergy Index was then calculated. Table 2 summarizes the efficacy of each biocide and their blends, and the Synergy Index of each combination.

With `Cl/C=C\C[N+]12CN3CN(CN(C3)C1)C2.[Cl-]` [CTAC, cis-1-(3-chloroallyl)-3,5,7-triaza-1-azoniaadamantane chloride] the “MBC (active ppm) CTAC” value ([1]; CTAC concentration (alone or within the blend) for complete bacteria kill, 40° C., 24 hour, anaerobic, 10^6 to 10^7 CFU/mL) was 31.1 active ppm and the “Concentration (active ppm) required for 99.999% bacterial reduction CTAC” value (oilfield SRB consortium; CTAC concentration (alone or within the blend)) was 180 active ppm.

With “tetrakis(hydroxymethyl)phosphonium sulfate [THPS]” the “MBC (active ppm) THPS” value [1] was 4.1 active ppm and the “Concentration (active ppm) required for 99.999% bacterial reduction THPS” value (oilfield SRB consortium; THPS concentration (alone or within the blend)) was 45.0 active ppm.
